Measurements: the supplement of paper PMC10307832

What was measured:
Test in all cases: relative viability (nuclei count vs DMSO), 5 days (fraction); higher = more cells survive
Quizartinib = compound: CC(C)(C)c1cc(NC(=O)Nc2ccc(-c3cn4c(n3)sc3cc(OCCN5CCOCC5)ccc34)cc2)no1 [Quizartinib]
How it was run: (§1)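 Lung cancer cell lines were seeded into 1536-well plates, kept overnight at 37 °C and pinned with five library-drug doses (not always all listed) spaced by √10. After 5 days, nuclei were Hoechst-stained, imaged at 4× and counted with MetaXpress. Viability is treated-well nuclei over vehicle-well nuclei, taken as a median across plates. Plates needed control CV below 25% and at least one doubling.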

YM155 = compound: COCC[n+]1c2c(n(Cc3cnccn3)c1C)C(=O)c1ccccc1C2=O [YM155]
How it was run: as §1

Quizartinib + Alpelisib = compound: CC(C)(C)c1cc(NC(=O)Nc2ccc(-c3cn4c(n3)sc3cc(OCCN5CCOCC5)ccc34)cc2)no1 [Quizartinib] + Cc1nc(NC(=O)N2CCC[C@H]2C(N)=O)sc1-c1ccnc(C(C)(C)C(F)(F)F)c1 [Alpelisib] (partner 2 µM)
How it was run: (§2)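 Nuclei were stained with Hoechst during a one-step fixation (final 0.05% Triton X-100, 1% formaldehyde, 1 ug/ml Hoechst) carried out 5 days after dosing, then counted on 4× images. The cells, lung cancer lines in 1536-well plates, had been dosed by pin tool the day after seeding with one drug alone or a fixed anchor-drug dose plus five library-drug doses (not always all listed) in √10 steps. Relative viability is the nuclei count in treated wells divided by that in vehicle wells, and each value is the median of duplicate plates.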

YM155 + Pemetrexed = compound: COCC[n+]1c2c(n(Cc3cnccn3)c1C)C(=O)c1ccccc1C2=O [YM155] + Nc1nc2[nH]cc(CCc3ccc(C(=O)N[C@@H](CCC(=O)O)C(=O)O)cc3)c2c(=O)[nH]1 [Pemetrexed] (partner 0.2 µM)
How it was run: as §2

Cell Line	relative viability (Quizartinib; 0.001 µM)	relative viability (Quizartinib; 0.003162 µM)	relative viability (Quizartinib; 0.01 µM)	relative viability (Quizartinib; 0.03162 µM)	relative viability (Quizartinib; 0.1 µM)	relative viability (YM155; 0.002 µM)	relative viability (YM155; 0.006325 µM)	relative viability (YM155; 0.02 µM)	relative viability (YM155; 0.06325 µM)	relative viability (Quizartinib + Alpelisib; first compound 0.001 µM)	relative viability (Quizartinib + Alpelisib; first compound 0.003162 µM)	relative viability (Quizartinib + Alpelisib; first compound 0.01 µM)	relative viability (Quizartinib + Alpelisib; first compound 0.03162 µM)	relative viability (Quizartinib + Alpelisib; first compound 0.1 µM)	relative viability (YM155 + Pemetrexed; first compound 0.002 µM)	relative viability (YM155 + Pemetrexed; first compound 0.006325 µM)	relative viability (YM155 + Pemetrexed; first compound 0.02 µM)	relative viability (YM155 + Pemetrexed; first compound 0.06325 µM)
LU99A	0.889	0.906	1.05	1.09	0.842	1.01	1.01	0.984	0.938	0.448	0.512	0.627	0.517	0.431	0.164	0.2	0.153	0.177
LXF-289	0.924	0.976	1.05	0.957	0.998	0.998	1.01	1.04	0.973	0.992	0.999	1.1	1.01	0.947	0.855	0.914	0.827	0.783
NCI-H23	0.742	1.01	0.918	0.896	1.05	0.734	0.925	0.957	0.529	–	0.556	0.679	0.645	0.687	–	0.655	0.646	0.549
NCI-H322M	0.952	1.03	0.916	0.965	0.978	0.92	0.982	1	1.03	0.707	0.779	0.799	0.758	0.787	0.504	0.613	0.576	0.622
NCI-H358	0.892	0.979	0.841	–	0.873	0.831	0.954	1.07	0.34	0.693	0.89	0.815	–	0.753	0.181	0.172	0.167	0.127
NCI-H441	0.919	0.946	0.945	0.764	1.14	0.9	1.15	0.795	0.759	0.656	0.541	0.885	0.733	0.779	0.249	0.267	0.293	0.198
NCI-H460	0.811	0.957	1.02	0.78	0.942	0.984	1.02	0.997	0.988	0.358	0.458	0.463	–	0.406	0.072	0.0667	0.0671	0.0598
NCI-H520	0.73	0.867	0.96	0.903	0.921	1.01	1.03	1.05	1.17	0.792	0.768	0.929	0.837	0.597	0.534	0.74	0.685	0.694
NCI-H596	1.05	1.03	0.99	0.875	1.04	0.962	0.989	1.15	1.06	0.521	0.498	1.34	0.407	0.396	0.429	0.485	0.532	0.499
NCI-H647	0.794	0.946	1.09	0.855	1.09	0.857	0.89	0.925	0.538	1.01	1.06	1.25	1.13	1.33	0.189	0.171	0.173	0.164
NCI-H650	0.849	0.863	0.851	0.833	0.967	0.953	0.88	1.01	0.909	1.02	1.12	1.14	1.14	1.14	0.834	0.744	0.966	1.08
NCI-H661	0.883	0.988	0.991	1.01	0.948	0.982	0.957	0.991	0.909	0.594	0.708	0.384	0.565	0.905	0.935	0.961	0.919	0.485
NCI-H838	0.894	0.962	0.882	0.936	0.843	0.912	0.999	1.01	0.768	0.876	0.942	0.958	0.968	0.593	0.276	0.232	0.225	0.216
NCI-H1355	0.924	0.966	0.876	1	1.02	0.927	1.01	1.01	1.08	0.814	0.927	0.812	0.865	0.827	0.979	1.07	1.04	0.997
NCI-H1395	0.93	0.949	0.841	0.811	1.16	0.898	0.946	1.12	0.985	1.05	1.01	1.21	1.06	0.995	0.857	0.737	1.03	0.906
NCI-H1437	0.942	0.963	0.973	0.822	0.849	0.89	0.96	0.983	0.826	0.911	0.883	1.13	0.749	0.711	0.297	0.305	0.33	0.234
NCI-H1563	1	0.889	0.989	0.646	0.949	0.971	0.966	1.07	0.983	0.893	0.871	0.945	–	0.826	0.753	0.726	0.86	0.745
NCI-H1651	0.88	0.885	1.06	0.924	0.988	0.929	0.992	0.974	0.998	0.749	0.872	1.04	0.751	0.904	0.598	0.599	0.6	0.615

Cell Line	relative viability (Quizartinib; 0.001 µM)	relative viability (Quizartinib; 0.003162 µM)	relative viability (Quizartinib; 0.01 µM)	relative viability (Quizartinib; 0.03162 µM)	relative viability (Quizartinib; 0.1 µM)	relative viability (YM155; 0.002 µM)	relative viability (YM155; 0.006325 µM)	relative viability (YM155; 0.02 µM)	relative viability (YM155; 0.06325 µM)	relative viability (Quizartinib + Alpelisib; first compound 0.001 µM)	relative viability (Quizartinib + Alpelisib; first compound 0.003162 µM)	relative viability (Quizartinib + Alpelisib; first compound 0.01 µM)	relative viability (Quizartinib + Alpelisib; first compound 0.03162 µM)	relative viability (Quizartinib + Alpelisib; first compound 0.1 µM)	relative viability (YM155 + Pemetrexed; first compound 0.002 µM)	relative viability (YM155 + Pemetrexed; first compound 0.006325 µM)	relative viability (YM155 + Pemetrexed; first compound 0.02 µM)	relative viability (YM155 + Pemetrexed; first compound 0.06325 µM)
NCI-H1666	0.86	1.01	1	0.845	1.02	0.932	1	1.02	0.918	0.793	0.956	1.03	0.742	1.02	0.837	0.881	0.854	0.868
NCI-H1734	0.924	0.959	1.03	0.943	1.01	0.995	0.956	1.01	1.1	0.561	0.716	0.642	0.699	0.665	0.375	0.404	0.399	0.452
NCI-H1755	0.866	0.958	0.996	1.07	0.99	0.973	0.996	0.968	1.03	0.798	0.851	0.975	0.917	0.923	0.647	0.42	0.359	0.434
NCI-H1792	0.712	0.987	0.811	0.853	0.924	0.754	0.884	0.983	0.957	0.799	0.667	0.711	0.499	0.703	0.713	0.762	0.805	0.971
NCI-H1793	0.838	1.01	0.839	0.853	0.925	0.706	0.936	0.908	0.869	0.588	0.875	0.788	0.731	0.798	0.708	0.896	1.03	0.954
NCI-H1915	0.877	0.925	0.865	0.998	1.02	0.888	0.994	0.997	0.817	1.03	1.01	1.06	1.11	1.16	0.481	0.494	0.439	0.458
NCI-H1944	0.938	0.918	0.889	0.918	0.944	0.957	0.889	1.02	1.03	0.691	0.826	0.898	0.89	0.805	0.74	0.559	0.587	0.641
NCI-H1975	0.853	0.891	0.966	1.03	1.01	0.826	0.883	0.921	0.679	0.638	0.521	0.655	0.545	0.585	0.26	0.258	0.302	0.167
NCI-H1993	0.948	1	1.02	1.04	1.11	0.904	0.927	0.771	0.577	0.668	0.638	0.614	0.65	0.642	0.566	0.542	0.567	0.444
NCI-H2009	0.903	0.937	0.995	1.02	0.96	0.976	0.992	1.02	0.836	1.14	1.01	1.19	1.09	1.13	0.93	1.07	0.85	0.528
NCI-H2023	0.881	0.999	0.938	–	1.01	0.872	1.01	0.866	0.71	0.562	0.467	0.665	0.323	0.575	0.23	0.247	0.194	0.155
NCI-H2085	0.95	0.939	1.02	0.943	0.976	0.954	0.986	0.922	0.636	0.88	0.881	0.997	0.822	0.827	0.705	0.884	0.911	0.869
NCI-H2087	0.85	0.784	1.24	1.09	1.11	1.07	1.03	1.1	0.856	1.05	0.98	1.19	1.14	0.836	0.639	0.677	0.685	0.604
NCI-H2126	0.981	1.01	1.01	1.05	1.08	0.972	1.03	0.991	1.05	0.76	0.726	0.757	0.774	0.753	0.696	0.691	0.67	0.753
NCI-H2170	0.97	0.944	1.04	1.04	0.995	0.922	1.05	0.936	1.05	0.769	0.683	0.956	0.787	0.809	0.253	0.256	0.271	0.264
NCI-H2228	0.856	0.854	1.15	1.13	0.927	0.834	0.887	1.02	1.11	0.771	0.58	0.79	0.721	0.678	0.329	0.318	0.332	0.326
NCI-H2347	0.961	1.06	1.07	0.965	1.12	0.928	0.994	1.07	0.868	0.655	0.995	1.12	1.11	1.14	0.542	0.407	0.436	0.39
